# Earlier results in patent US9597409B2, “Methods of treating cancer” (Abraxis BioScience, LLC, priority 2010, dated 2017).
# System: patients with locally advanced or metastatic NSCLC
# Details: single agents commonly used to treat NSCLC
structure (smiles),measurement,value
CCC1=C[C@@H]2CN(C1)Cc1c([nH]c3ccccc13)[C@@](C(=O)OC)(c1cc3c(cc1OC)N(C)[C@H]1[C@@](O)(C(=O)OC)[C@H](OC(C)=O)[C@]4(CC)C=CCN5CC[C@]31[C@@H]54)C2 [vinorelbine],response rate (RR),29.4%
